Read-outs that look alike come from different tables or passages of the source.
Experiments:
[1] = design: method as in earlier work; settings: cited from earlier work; for logβ Ga(III)L: T = 25 °C, I = 0.1 M NaClO4, M:L 1:1; for pGa(III): calculated for [L] = 1 × 10−4 [M] = 1 × 10−5 at pH 7.4
[2] = test system: iron-starved (Fe(−)) A. fumigatus cultures; assay: Short-term in vitro uptake of 68Ga-labeled siderophores; format: cell-based, Aspergillus fumigatus; settings: paired t test, p < 0.01
Description: To investigate the short-term active transport of ^68Ga-labeled FOXE analogues by A. fumigatus, iron-starved (Fe(−)) cultures were used (Figure 3). As a control, the same cultures were incubated with Fe(III)-FOXE beforehand to saturate and therefore block Sit1-mediated activity. A decrease in uptake upon Fe(III)-FOXE blocking underlines specific uptake by the same transporters recognizing FOXE.
Figure 3 Uptake of ^68Ga-labeled FOXE analogues by Fe(III)-FOXE-blocked and -unblocked iron-starved (Fe(−)) A. fumigatus cultures after 45 min of incubation. * indicates significant difference of blocking compared with nonblocking (mean of three independent experiments, paired t test, p < 0.01).
Uptake assays were performed in both iron-deficient and iron-sufficient A. fumigatus cultures as described previously.[55] The uptake of each [^68Ga]Ga(III)-FOXE derivative was expressed as the ratio to [^68Ga]Ga(III)-FOXE uptake from the same experiment in order to normalize uptake variations between different fungal cultures. The mean values of three different assays were used to quantitatively compare the difference in uptake between the compounds.

[3] = test system: A. fumigatus mutant strain ΔsidAΔftrA; assay: Growth promotion assay (siderophore utilization), ΔsidAΔftrA; format: cell-based, Aspergillus fumigatus; settings: siderophores in ferri-form, 0.1, 1.0, 10 and 50 μM; 48 h at 37 °C
Description: (§1) In order to investigate whether A. fumigatus is able to utilize the artificial FOX analogues in the iron form as an iron source, growth promotion assays were performed (Figure 2) using two A. fumigatus mutants. The mutant strain ΔsidAΔftrA is able to grow only in the presence of utilizable siderophores or ferrous iron concentration >3 mM.[10],[44] The second mutant, ΔsidAΔftrAΔsit1, additionally lacks the siderophore transporter Sit1, which exclusively mediates the uptake of ferrioxamine-type siderophores and is additionally involved in the uptake of ferrichrome-type and coprogen-type siderophores but not of FsC or TAFC.[19],[20] For growth promotion analysis, the mutants were spotted on iron-lacking media supplemented with different concentrations of siderophores. Control experiments confirmed the expected growth pattern: growth of ΔsidAΔftrA but not of ΔsidAΔftrAΔsit1 was promoted by supplementation with ferric FOXE; both mutant strains were able to grow in the presence of TAFC as uptake of this siderophore depends on MirB but not on Sit1; both mutant strains lacked growth without siderophore supplementation, and uninoculated media also lacked fungal growth. […] The utilization of iron from all artificial ferrioxamine analogues was mediated by Sit1 like that of natural ferrioxamine-type siderophores.[20]
Figure 2 Growth promotion analysis of FOX analogues. 10^4 conidia of A. fumigatus mutant strains ΔsidAΔftrA (A) and ΔsidAΔftrAΔsit1 (B) were point-inoculated for every condition. All natural and artificial siderophores were tested in the ferri-form in the concentrations 0.1, 1.0, 10, and 50 μM. As controls, TAFC, which is taken up in a Sit1-independent manner, and FOXE were included. Moreover, controls without siderophore supplementation with (+) or without (−) inoculation of conidia were included. Greenish coloration of the fungal colonies indicates asexual sporulation. Pictures were taken after 48 h of incubation at 37 °C. […]

[4] = cited from earlier work
[5] = test system: A. fumigatus mutant strain ΔsidAΔftrAΔsit1; assay: Growth promotion assay (siderophore utilization), Sit1-lacking ΔsidAΔftrAΔsit1; format: cell-based, Aspergillus fumigatus; settings: siderophores in ferri-form, 0.1, 1.0, 10 and 50 μM; 48 h at 37 °C
Description: as §1
Figure 2 Growth promotion analysis of FOX analogues. […]

S. aureus cultures = test system: S. aureus cultures; design: method as in PMID 34783539; settings: 68Ga-labeled, iron-deficient cultures; cited from earlier work

Molecule: O=C1CCN(O)C(=O)CCNC(=O)CCN(O)C(=O)CCNC(=O)CCN(O)C(=O)CCN1 [FOX 2–2]
- logβ Ga(III)L [1]: 26.44(5)
- pGa(III) [1]: 21.4
- difference between Fe(III)-FOXE-blocked and -unblocked uptake [2]: statistically insignificant
- growth promotion of ΔsidAΔftrA [3]: very limited growth promotion only at the highest tested concentration of 50 μM
- logβ Fe(III)L ([4]; T = 25 °C, I = 0.1 M NaClO4, M:L 1:1): 25.92(8)
- pFe(III) ([4]; calculated for [L] = 1 × 10−4 [M] = 1 × 10−5 at pH 7.4): 21.5

Molecule: O=C1CCC(=O)N(O)CCCCCNC(=O)CCC(=O)N(O)CCCCCNC(=O)CCC(=O)N(O)CCCCCN1 [FOXE, ferrioxamine E]
- growth of ΔsidAΔftrAΔsit1 (Sit1 dependence) [5]: not
- logβ Ga(III)L [1]: 29.79(1)
- pGa(III) [1]: 25.2
- uptake (radioactivity level) in S. aureus cultures (S. aureus cultures): high radioactivity levels
- growth promotion of ΔsidAΔftrA [3]: promoted
- logβ Fe(III)L ([4]; ref Reference2): 32.21(4)

Molecule: triacetylfusarinine C [TAFC]
- growth of ΔsidAΔftrAΔsit1 (Sit1 dependence) [5]: able to grow
- growth promotion of ΔsidAΔftrA [3]: able to grow
